Laboratory results as given in ChEMBL document CHEMBL5154765, “Design, synthesis, and biological evaluation of novel spiro[pyrrolidine-2,3'-quinolin]-2'-one derivatives as potential chitin synthase inhibitors and antifungal agents” (Eur J Med Chem, 2022).
In brackets after ≈: the same amount, converted by molar mass. Activity calls are given as the source filed them. The rule behind the calls is not given here.

Experiments:
Cryptococcus neoformans [1] = assay: Antifungal activity against Cryptococcus neoformans ATCC 32719 incubated for 72 hrs in presence of polyoxin B by checker board assay; format: functional
Aspergillus fumigatus [2] = assay: Antifungal activity against Aspergillus fumigatus GIMCC 3.19 assessed as polyoxin B MIC incubated for 72 hrs by checker board assay; format: functional
Aspergillus flavus [3] = assay: Antifungal activity against Aspergillus flavus ATCC 16870 assessed as fluconazole MIC incubated for 72 hrs by checker board assay; format: functional
Aspergillus fumigatus [4] = assay: Antifungal activity against fluconazole resistant Aspergillus fumigatus GIMCC 3.19 assessed as reduction in fungal growth incubated for 24 hrs by two fold broth dilution method; format: functional
Candida albicans [5] = assay: Synergistic antifungal activity against Candida albicans ATCC 76615 assessed as fractional inhibitory concentration index incubated for 72 hrs in presence of polyoxin B by checker board assay; format: functional
Aspergillus flavus [6] = assay: Synergistic antifungal activity against Aspergillus flavus ATCC 16870 assessed as fractional inhibitory concentration index incubated for 72 hrs in presence of polyoxin B by checker board assay; format: functional
Candida albicans [7] = assay: Antifungal activity against Candida albicans ATCC 76615 assessed as reduction in fungal growth incubated for 24 hrs by two fold broth dilution method; format: functional
Candida albicans [8] = assay: Antifungal activity against fluconazole resistant Candida albicans ATCC 76615 assessed as reduction in fungal growth incubated for 24 hrs by two fold broth dilution method; format: functional
Aspergillus flavus [9] = assay: Antifungal activity against Aspergillus flavus ATCC 16870 incubated for 72 hrs in presence of fluconazole by checker board assay; format: functional
Candida albicans [10] = assay: Antifungal activity against Candida albicans ATCC 76615 incubated for 72 hrs in presence of fluconazole by checker board assay; format: functional
[11] = Binding affinity to Candida tropicalis ATCC750 chitin synthase assessed as inhibition constant using UDP-GlcNAc as substrate incubated for 10 hrs by Lineweaver-burk plot analysis
Aspergillus fumigatus [12] = assay: Antifungal activity against Aspergillus fumigatus GIMCC 3.19 assessed as reduction in fungal growth incubated for 24 hrs by two fold broth dilution method; format: functional
Candida albicans [13] = assay: Antifungal activity against Candida albicans ATCC 76615 assessed as polyoxin B MIC incubated for 72 hrs by checker board assay; format: functional
Candida albicans [14] = assay: Antifungal activity against Candida albicans ATCC 76615 incubated for 72 hrs in presence of polyoxin B by checker board assay; format: functional
Aspergillus fumigatus [15] = assay: Synergistic antifungal activity against Aspergillus fumigatus GIMCC 3.19 assessed as fractional inhibitory concentration index incubated for 72 hrs in presence of fluconazole by checker board assay; format: functional
Candida albicans [16] = assay: Antifungal activity against Candida albicans ATCC 76615 assessed as reduction in fungal growth in presence of sorbitol incubated for 24 hrs by two fold broth dilution method; format: functional
Candida albicans [17] = assay: Synergistic antifungal activity against Candida albicans ATCC 76615 assessed as fractional inhibitory concentration index incubated for 72 hrs in presence of fluconazole by checker board assay; format: functional
Cryptococcus neoformans [18] = assay: Antifungal activity against Cryptococcus neoformans ATCC 32719 assessed as fluconazole MIC incubated for 72 hrs by checker board assay; format: functional
Aspergillus fumigatus [19] = assay: Antifungal activity against Aspergillus fumigatus GIMCC 3.19 incubated for 72 hrs in presence of fluconazole by checker board assay; format: functional
Cryptococcus neoformans [20] = assay: Antifungal activity against Cryptococcus neoformans ATCC 32719 assessed as reduction in fungal growth in presence of sorbitol incubated for 24 hrs by two fold broth dilution method; format: functional
Aspergillus fumigatus [21] = assay: Antifungal activity against Aspergillus fumigatus GIMCC 3.19 incubated for 72 hrs in presence of polyoxin B by checker board assay; format: functional
Aspergillus fumigatus [22] = assay: Antifungal activity against Aspergillus fumigatus GIMCC 3.19 assessed as fluconazole MIC incubated for 72 hrs by checker board assay; format: functional
[23] = Inhibition of Candida tropicalis ATCC750 chitin synthase using UDP-GlcNAc as substrate incubated for 1 hr by microplate reader analysis
Cryptococcus neoformans [24] = assay: Synergistic antifungal activity against Cryptococcus neoformans ATCC 32719 assessed as fractional inhibitory concentration index incubated for 72 hrs in presence of polyoxin B by checker board assay; format: functional
Aspergillus fumigatus [25] = assay: Synergistic antifungal activity against Aspergillus fumigatus GIMCC 3.19 assessed as fractional inhibitory concentration index incubated for 72 hrs in presence of polyoxin B by checker board assay; format: functional
Cryptococcus neoformans [26] = assay: Antifungal activity against fluconazole resistant Cryptococcus neoformans ATCC 32719 assessed as reduction in fungal growth incubated for 24 hrs by two fold broth dilution method; format: functional
Candida tropicalis [27] = assay: Noncompetitive inhibition of Candida tropicalis ATCC750 assessed as decrease in Vmax with constant Km at 0.05 to 0.15 mM using UDP-GlcNAc as substrate incubated for 10 hrs by Lineweaver-burk plot analysis; settings: dose 0.05-0.15 mM
Aspergillus flavus [28] = assay: Antifungal activity against fluconazole resistant Aspergillus flavus ATCC 16870 assessed as reduction in fungal growth incubated for 24 hrs by two fold broth dilution method; format: functional
Cryptococcus neoformans [29] = assay: Antifungal activity against Cryptococcus neoformans ATCC 32719 assessed as polyoxin B MIC incubated for 72 hrs by checker board assay; format: functional
Aspergillus flavus [30] = assay: Antifungal activity against Aspergillus flavus ATCC 16870 assessed as reduction in fungal growth in presence of sorbitol incubated for 24 hrs by two fold broth dilution method; format: functional
Cryptococcus neoformans [31] = assay: Antifungal activity against Cryptococcus neoformans ATCC 32719 incubated for 72 hrs in presence of fluconazole by checker board assay; format: functional
Candida albicans [32] = assay: Antifungal activity against micafungin resistant Candida albicans ATCC 76615 assessed as reduction in fungal growth incubated for 24 hrs by two fold broth dilution method; format: functional
Candida tropicalis [33] = assay: Inhibition of Candida tropicalis ATCC750 chitin synthase at 300 ug/ml using UDP-GlcNAc as substrate incubated for 1 hr by microplate reader analysis relative to control; settings: dose 300.0 µg/ml
Aspergillus flavus [34] = assay: Antifungal activity against Aspergillus flavus ATCC 16870 assessed as reduction in fungal growth incubated for 24 hrs by two fold broth dilution method; format: functional
Aspergillus flavus [35] = assay: Antifungal activity against Aspergillus flavus ATCC 16870 incubated for 72 hrs in presence of polyoxin B by checker board assay; format: functional
Candida albicans [36] = assay: Antifungal activity against Candida albicans ATCC 76615 assessed as fluconazole MIC incubated for 72 hrs by checker board assay; format: functional
Aspergillus fumigatus [37] = assay: Antifungal activity against Aspergillus fumigatus GIMCC 3.19 assessed as reduction in fungal growth in presence of sorbitol incubated for 24 hrs by two fold broth dilution method; format: functional
Aspergillus flavus [38] = assay: Antifungal activity against Aspergillus flavus ATCC 16870 assessed as polyoxin B MIC incubated for 72 hrs by checker board assay; format: functional
Cryptococcus neoformans [39] = assay: Synergistic antifungal activity against Cryptococcus neoformans ATCC 32719 assessed as fractional inhibitory concentration index incubated for 72 hrs in presence of fluconazole by checker board assay; format: functional
Cryptococcus neoformans [40] = assay: Antifungal activity against Cryptococcus neoformans ATCC 32719 assessed as reduction in fungal growth incubated for 24 hrs by two fold broth dilution method; format: functional
Aspergillus flavus [41] = assay: Synergistic antifungal activity against Aspergillus flavus ATCC 16870 assessed as fractional inhibitory concentration index incubated for 72 hrs in presence of fluconazole by checker board assay; format: functional

`O=C(/C=C/C(=O)N1CCCC12Cc1ccccc1NC2=O)Nc1cccc([N+](=O)[O-])c1` (stereo unspecified) gave an MIC (Cryptococcus neoformans [1]) of 4 µg/mL, an MIC (Aspergillus fumigatus [2]) of 4 µg/mL and an MIC (Aspergillus flavus [3]) of 1 µg/mL. The MIC (Aspergillus fumigatus [4]) was 32 µg/mL (≈ 76.1 µM), the “fractional inhibitory concentration index (FICI)” value (Candida albicans [5]) was 1.5 and the “fractional inhibitory concentration index (FICI)” value (Aspergillus flavus [6]) was 1.5. For the same compound, the MIC (Candida albicans [7]) was 2 µg/mL (≈ 4.76 µM), the MIC (Candida albicans [8]) was 32 µg/mL (≈ 76.1 µM) and the MIC (Aspergillus flavus [9]) was 2 µg/mL. It also gave an MIC (Candida albicans [10]) of 1 µg/mL, a Ki [11] of 110 µM and an MIC (Aspergillus fumigatus [12]) of 4 µg/mL (≈ 9.51 µM). For the same compound, the MIC (Candida albicans [13]) was 4 µg/mL, the MIC (Candida albicans [14]) was 2 µg/mL and the “fractional inhibitory concentration index (FICI)” value (Aspergillus fumigatus [15]) was 1.13. For the same compound, the MIC (Candida albicans [16]) was 16 µg/mL, the “fractional inhibitory concentration index (FICI)” value (Candida albicans [17]) was 0.75 and the MIC (Cryptococcus neoformans [18]) was 1 µg/mL. For the same compound, the MIC (Aspergillus fumigatus [19]) was 0.5 µg/mL, the MIC (Cryptococcus neoformans [20]) was 64 µg/mL and the MIC (Aspergillus fumigatus [21]) was 4 µg/mL. For the same compound, the MIC (Aspergillus fumigatus [22]) was 4 µg/mL, the IC50 [23] was 100 µM and the “fractional inhibitory concentration index (FICI)” value (Cryptococcus neoformans [24]) was 0.75. For the same compound, the “fractional inhibitory concentration index (FICI)” value (Aspergillus fumigatus [25]) was 1.5, the MIC (Cryptococcus neoformans [26]) was 64 µg/mL (≈ 152 µM) and the inhibition (Candida tropicalis [27]) was “Active”. It also gave an MIC (Aspergillus flavus [28]) of 32 µg/mL (≈ 76.1 µM), an MIC (Cryptococcus neoformans [29]) of 4 µg/mL and an MIC (Aspergillus flavus [30]) of 64 µg/mL. For the same compound, the MIC (Cryptococcus neoformans [31]) was 4 µg/mL, the MIC (Candida albicans [32]) was 32 µg/mL (≈ 76.1 µM) and the inhibition (Candida tropicalis [33]) was 83.4%. For the same compound, the MIC (Aspergillus flavus [34]) was 4 µg/mL (≈ 9.51 µM), the MIC (Aspergillus flavus [35]) was 4 µg/mL and the MIC (Candida albicans [36]) was 1 µg/mL. For the same compound, the MIC (Aspergillus fumigatus [37]) was 128 µg/mL, the MIC (Aspergillus flavus [38]) was 4 µg/mL and the “fractional inhibitory concentration index (FICI)” value (Cryptococcus neoformans [39]) was 0.63. The MIC (Cryptococcus neoformans [40]) was 8 µg/mL (≈ 19 µM) and the “fractional inhibitory concentration index (FICI)” value (Aspergillus flavus [41]) was 0.63.
